What was measured:
[1] = target: T1, glucosylceramide synthase (GCS) (Homo sapiens, UniProt Q16739); assay: GCS enzyme inhibition assay (A549 cell lysate, NBD C6-ceramide, HPLC fluorescence); type: biochemical; conditions: inhibitory activity against GCS, 37° C., 90 minutes
T1 construct: The obtained supernatant was used; host or cells: A549 cells (lysate supernatant after sonication)
T1 sequence (Q16739 1-394): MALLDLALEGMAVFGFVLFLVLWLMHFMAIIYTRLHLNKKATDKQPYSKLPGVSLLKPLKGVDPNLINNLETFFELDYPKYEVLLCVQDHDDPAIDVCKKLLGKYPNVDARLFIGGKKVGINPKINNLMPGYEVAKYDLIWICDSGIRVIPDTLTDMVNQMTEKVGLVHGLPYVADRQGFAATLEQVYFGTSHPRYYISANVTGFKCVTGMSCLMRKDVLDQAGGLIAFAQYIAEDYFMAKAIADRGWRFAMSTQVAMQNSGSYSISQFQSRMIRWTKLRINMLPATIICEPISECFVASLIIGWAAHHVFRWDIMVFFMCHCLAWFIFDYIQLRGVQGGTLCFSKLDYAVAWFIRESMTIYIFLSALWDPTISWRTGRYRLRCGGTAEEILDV
Procedure, shortened: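 A549 cell lysate (50 mM HEPES pH 7.3) served as GCS source; reactions ran 90 min at 37° C, were stopped with chloroform/methanol and lipids extracted. Activity taken as GlcCer/(Cer+GlcCer) peak area, normalised between DMSO and ibiglustat controls.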

[2] = test system: GM1 production in Jurkat cells; assay: cells; type: cell-based; conditions: Homo sapiens, Jurkat, 72 h

Row | SMILES | IC50 [1] | IC50 [2]
1 | O=C(NC1CCOc2cc(-c3ccc(Cl)cc3)ccc21)O[C@@H]1CN2CCC1CC2 (stereo partly drawn) [Example 14, (S)-quinuclidin-3-yl (7-(4-chlorophenyl)chroman-4-yl)carbamate] | 9.67 nM | 42.1 nM
2 | CC1(C)COc2cc(-c3cccc4cccnc34)ccc2C1NC(=O)O[C@@H]1CN2CCC1CC2 (stereo partly drawn) [Example 165, (S)-quinuclidin-3-yl (3,3-dimethyl-7-(quinolin-8-yl)chroman-4-yl)carbamate] | 0.82 nM | 0.66 nM
3 | COc1cc2c(cc1-c1cccc(C(C)C)c1)OCC(C)(C)C2NC(=O)O[C@@H]1CN2CCC1CC2 (stereo partly drawn) [Example 358, (S)-quinuclidin-3-yl (7-(3-isopropylphenyl)-6-methoxy-3,3-dimethylchroman-4-yl)carbamate] | 0.61 nM | 2 nM
4 | O=C(NC1CCOc2cc(-c3cccc4cc[nH]c34)ccc21)O[C@@H]1CN2CCC1CC2 (stereo partly drawn) [Example 47, (S)-quinuclidin-3-yl (7-(1H-indol-7-yl)chroman-4-yl)carbamate] | 2.55 nM | 10.5 nM
5 | CC1(C)COc2cc(-c3ccc(F)cc3F)ccc2C1NC(=O)O[C@@H]1CN2CCC1CC2 (stereo partly drawn) [Example 233, (S)-quinuclidin-3-yl (7-(2,4-difluorophenyl)-3,3-dimethylchroman-4-yl)carbamate] | 0.49 nM | 3 nM
6 | CC1(C)COc2cc(-c3ccc4c(c3)CCCO4)ccc2C1NC(=O)O[C@@H]1CN2CCC1CC2 (stereo partly drawn) [Example 163, (S)-quinuclidin-3-yl (3′,3′-dimethyl-[6,7′-bichroman]-4′-yl)carbamate] | 0.59 nM | 0.5 nM
7 | CC1(C)COc2cc(-c3ccc(OCC(F)(F)F)nc3)ccc2C1NC(=O)O[C@@H]1CN2CCC1CC2 (stereo partly drawn) [Example 144, (S)-quinuclidin-3-yl (3,3-dimethyl-7-(6-(2,2,2-trifluoroethoxy)pyridin-3-yl)chroman-4-yl)carbamate] | 0.17 nM | 1.2 nM
8 | CC1(C)COc2cc(-c3cc(F)ccc3Cl)ccc2C1NC(=O)O[C@@H]1CN2CCC1CC2 (stereo partly drawn) [Example 232, (S)-quinuclidin-3-yl (7-(2-chloro-5-fluorophenyl)-3,3-dimethylchroman-4-yl)carbamate] | 0.41 nM | 0.3 nM
9 | COCOc1cccc(-c2ccc3c(c2)SCCC3NC(=O)O[C@@H]2CN3CCC2CC3)c1 (stereo partly drawn) [Example 321, (S)-quinuclidin-3-yl (7-(3-(methoxymethoxy)phenyl)thiochroman-4-yl)carbamate] | 1 nM | 3.64 nM
10 | CC1(C)COc2cc(-c3cccc(Cl)c3)c(F)cc2C1NC(=O)O[C@@H]1CN2CCC1CC2 (stereo partly drawn) [Example 332, (S)-quinuclidin-3-yl (6-fluoro-7-(3-chlorophenyl)-3,3-dimethylchroman-4-yl)carbamate] | 0.39 nM | 0.9 nM
11 | COc1ccccc1-c1ccc2c(c1)OCC(C)(C)C2NC(=O)O[C@@H]1CN2CCC1CC2 (stereo partly drawn) [Example 162, (S)-quinuclidin-3-yl (7-(2-methoxyphenyl)-3,3-dimethylchroman-4-yl)carbamate] | 0.52 nM | 0.02 nM
12 | COc1cc2c(cc1-c1cccc(Cl)c1)OCC(C)(C)C2NC(=O)O[C@@H]1CN2CCC1CC2 (stereo partly drawn) [Example 351, (S)-quinuclidin-3-yl (7-(3-chlorophenyl)-6-methoxy-3,3-dimethylchroman-4-yl)carbamate] | 0.45 nM | 1.7 nM
13 | Cc1ccc(-c2ccc3c(c2)OCC(C)(C)C3NC(=O)O[C@@H]2CN3CCC2CC3)c(Cl)c1 (stereo partly drawn) [Example 223, (S)-quinuclidin-3-yl (7-(2-chloro-4-methylphenyl)-3,3-dimethylchroman-4-yl)carbamate] | 1.58 nM | 1.6 nM
14 | CC1(C)COc2cc(/C=C/c3ccc(F)cc3F)ccc2C1NC(=O)O[C@@H]1CN2CCC1CC2 (stereo partly drawn) [Example 286, (S)-quinuclidin-3-yl (7-((E)-2,4-difluorostyryl)-3,3-dimethylchroman-4-yl)carbamate] | 0.93 nM | 3.3 nM
15 | CC(C)Oc1ccc(-c2cc3c(cc2F)C(NC(=O)O[C@@H]2CN4CCC2CC4)C(C)(C)CO3)cn1 (stereo partly drawn) [Example 348, (S)-quinuclidin-3-yl (6-fluoro-7-(6-isopropoxypyridin-3-yl)-3,3-dimethylchroman-4-yl)carbamate] | 0.24 nM | 0.5 nM
16 | Cc1ccc(-c2ccc3c(c2)OCC(C)(C)C3NC(=O)O[C@@H]2CN3CCC2CC3)c(F)c1 (stereo partly drawn) [Example 225, (S)-quinuclidin-3-yl (7-(2-fluoro-4-methylphenyl)-3,3-dimethylchroman-4-yl)carbamate] | 0.45 nM | 1.7 nM
17 | CC1(C)CC(NC(=O)O[C@@H]2CN3CCC2CC3)c2ccc(-c3cccc(C(F)(F)F)c3)cc2O1 (stereo partly drawn) [Example 295, (S)-quinuclidin-3-yl (2,2-dimethyl-7-(3-(trifluoromethyl)phenyl)chroman-4-yl)carbamate] | 18.1 nM | 11.2 nM

Row | SMILES | IC50 [1] | IC50 [2]
18 | CN1CCOc2cc(-c3ccc4c(c3)OCC(C)(C)C4NC(=O)O[C@@H]3CN4CCC3CC4)ccc21 (stereo partly drawn) [Example 198, (S)-quinuclidin-3-yl (3,3-dimethyl-7-(4-methyl-3,4-dihydro-2H-benzo[b][1,4]oxazin-7-yl)chroman-4-yl)carbamate] | 0.66 nM | 1.83 nM
19 | CC1(C)COc2cc(-c3cc4ccccc4s3)ccc2C1NC(=O)O[C@@H]1CN2CCC1CC2 (stereo partly drawn) [Example 208, (S)-quinuclidin-3-yl (7-(benzo[b]thiophen-2-yl)-3,3-dimethylchroman-4-yl)carbamate] | 1.41 nM | 2.47 nM
20 | O=C(NC1CCOc2ccc(-c3ccccc3OC(F)(F)F)cc21)O[C@@H]1CN2CCC1CC2 (stereo partly drawn) [Example 96, (S)-quinuclidin-3-yl (6-(2-(trifluoromethoxy)phenyl)chroman-4-yl)carbamate] | 8.55 nM | 78.9 nM
21 | CC(C)Oc1ccc(-c2cc3c(cc2F)C(NC(=O)O[C@@H]2CN4CCC2CC4)C(C)(C)CO3)cc1Cl (stereo partly drawn) [Example 344, (S)-quinuclidin-3-yl (7-(3-chloro-4-isopropoxyphenyl)-6-fluoro-3,3-dimethylchroman-4-yl)carbamate] | 0.58 nM | 7.3 nM
22 | CC1(NC(=O)O[C@@H]2CN3CCC2CC3)CCOc2cc(-c3ccccc3C#N)ccc21 (stereo partly drawn) [Example 309, (S)-quinuclidin-3-yl (7-(2-cyanophenyl)-4-methylchroman-4-yl)carbamate] | 5.77 nM | 37.2 nM
23 | CN(C)c1cc(-c2ccc3c(c2)OCCC3NC(=O)O[C@@H]2CN3CCC2CC3)ccc1F (stereo partly drawn) [Example 69, (S)-quinuclidin-3-yl (7-(3-(dimethylamino)-4-fluorophenyl)chroman-4-yl)carbamate] | 1.91 nM | 8.93 nM
24 | CC1(C)COc2cc(-c3cccnc3)ccc2C1NC(=O)O[C@@H]1CN2CCC1CC2 (stereo partly drawn) [Example 265, (S)-quinuclidin-3-yl (3,3-dimethyl-7-(pyridin-3-yl)chroman-4-yl)carbamate] | 2.03 nM | 38.7 nM
25 | CC1(C)COc2cc(-c3cccc4c3oc3ccccc34)ccc2C1NC(=O)O[C@@H]1CN2CCC1CC2 (stereo partly drawn) [Example 290, (S)-quinuclidin-3-yl (7-(dibenzo[b,d]furan-4-yl)-3,3-dimethylchroman-4-yl)carbamate] | 1.54 nM | 0.9 nM
26 | CN(C)c1cccc(-c2ccc3c(c2)OCC(C)(C)C3NC(=O)O[C@@H]2CN3CCC2CC3)c1 (stereo partly drawn) [Example 148, (S)-quinuclidin-3-yl (7-(3-(dimethylamino)phenyl)-3,3-dimethylchroman-4-yl)carbamate] | 0.74 nM | 0.03 nM
27 | COc1cc(-c2ccc3c(c2)OCCC3NC(=O)O[C@@H]2CN3CCC2CC3)ccc1Cl (stereo partly drawn) [Example 66, (S)-quinuclidin-3-yl (7-(4-chloro-3-methoxyphenyl)chroman-4-yl)carbamate] | 1.75 nM | 11.3 nM
28 | O=C(NC1CCOc2ccc(-c3cccc(Cl)c3)cc21)O[C@@H]1CN2CCC1CC2 (stereo partly drawn) [Example 89, (S)-quinuclidin-3-yl (6-(3-chlorophenyl)chroman-4-yl)carbamate] | 6.63 nM | 216 nM
29 | CC(C)(C)c1cccc(-c2ccc3c(c2)COCC3NC(=O)O[C@@H]2CN3CCC2CC3)c1 (stereo partly drawn) [Example 312, (S)-quinuclidin-3-yl (7-(3-(tert-butyl)phenyl)isochroman-4-yl)carbamate] | 5.62 nM | 28.8 nM
30 | COc1cccc(F)c1-c1ccc2c(c1)OCC(C)(C)C2NC(=O)O[C@@H]1CN2CCC1CC2 (stereo partly drawn) [Example 122, (S)-quinuclidin-3-yl (7-(2-fluoro-6-methoxyphenyl)-3,3-dimethylchroman-4-yl)carbamate] | 0.96 nM | 3.75 nM
31 | CC1(C)COc2cc(-c3cccc(Cl)c3)ccc2C1NC(=O)O[C@@H]1CN2CCC1CC2 (stereo partly drawn) [Example 103, (S)-quinuclidin-3-yl (7-(3-chlorophenyl)-3,3-dimethylchroman-4-yl)carbamate] | 1 nM | 1.43 nM
32 | COc1ccc(-c2ccc3c(c2)OCCC3NC(=O)O[C@@H]2CN3CCC2CC3)cc1C(F)(F)F (stereo partly drawn) [Example 83, (S)-quinuclidin-3-yl (7-(4-methoxy-3-(trifluoromethyl)phenyl)chroman-4-yl)carbamate] | 3.93 nM | 19.6 nM
33 | CC1(C)COc2cc(-c3cccc(F)c3F)ccc2C1NC(=O)O[C@@H]1CN2CCC1CC2 (stereo partly drawn) [Example 239, (S)-quinuclidin-3-yl (7-(2,3-difluorophenyl)-3,3-dimethylchroman-4-yl)carbamate] | 0.47 nM | 4.8 nM
